How the values were obtained:
rat 5-HT2A receptors = rat 5-HT2A receptors (Rattus norvegicus, UniProt P14842); conditions: [125I]-DOI competition binding; cited from earlier work
5-HT2A [1] = target: T1, 5-HT2A (Homo sapiens, UniProt P28223); conditions: Ca2+ mobilization; cited from earlier work
5-HT2A receptors = target: T2, 5-HT2A receptors (Rattus norvegicus, UniProt P14842); conditions: Xenopus oocytes; cited from earlier work
T2 construct: host or cells: Xenopus oocytes (transient)

[2] = cited from earlier work
5-HT2A [3] = target: T1, 5-HT2A; conditions: cited from earlier work
5-HT2A [4] = target: T1, 5-HT2A; conditions: [125I]-DOI competition binding; cited from earlier work
5-HT2B = 5-HT2B (Homo sapiens, UniProt P41595); conditions: Ca2+ mobilization; cited from earlier work
Sequence of 5-HT2B (P41595 whole entry): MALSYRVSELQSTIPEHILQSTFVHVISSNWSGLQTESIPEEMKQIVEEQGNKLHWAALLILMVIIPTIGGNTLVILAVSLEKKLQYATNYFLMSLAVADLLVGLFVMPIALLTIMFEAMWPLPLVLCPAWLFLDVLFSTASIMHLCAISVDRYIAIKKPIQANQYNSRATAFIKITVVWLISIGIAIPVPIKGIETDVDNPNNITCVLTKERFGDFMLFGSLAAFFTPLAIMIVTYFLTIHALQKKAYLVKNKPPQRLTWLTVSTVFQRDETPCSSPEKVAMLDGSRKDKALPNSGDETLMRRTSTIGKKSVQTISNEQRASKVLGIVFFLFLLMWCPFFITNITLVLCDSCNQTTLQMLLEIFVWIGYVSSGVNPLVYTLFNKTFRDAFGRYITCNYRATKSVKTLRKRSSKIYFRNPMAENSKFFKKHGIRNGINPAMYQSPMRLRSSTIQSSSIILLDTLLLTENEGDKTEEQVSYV

human Nav1.1 and Navβ1 = human Nav1.1 and Navβ1 (Homo sapiens, UniProt P35498); assay: cell-based

T1 sequence (P28223 whole entry): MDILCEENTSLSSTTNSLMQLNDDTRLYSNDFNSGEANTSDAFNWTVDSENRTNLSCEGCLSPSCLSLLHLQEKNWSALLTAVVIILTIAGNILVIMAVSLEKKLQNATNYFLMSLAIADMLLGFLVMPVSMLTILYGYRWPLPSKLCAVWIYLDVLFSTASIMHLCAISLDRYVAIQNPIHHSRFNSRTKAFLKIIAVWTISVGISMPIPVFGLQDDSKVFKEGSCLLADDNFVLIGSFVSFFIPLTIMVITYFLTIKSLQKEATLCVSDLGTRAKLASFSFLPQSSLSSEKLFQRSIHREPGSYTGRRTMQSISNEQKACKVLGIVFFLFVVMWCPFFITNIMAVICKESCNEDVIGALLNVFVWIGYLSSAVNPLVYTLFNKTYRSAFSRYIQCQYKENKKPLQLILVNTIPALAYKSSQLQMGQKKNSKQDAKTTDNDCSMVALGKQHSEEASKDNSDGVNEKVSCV
Sequence of rat 5-HT2A receptors (P14842 whole entry): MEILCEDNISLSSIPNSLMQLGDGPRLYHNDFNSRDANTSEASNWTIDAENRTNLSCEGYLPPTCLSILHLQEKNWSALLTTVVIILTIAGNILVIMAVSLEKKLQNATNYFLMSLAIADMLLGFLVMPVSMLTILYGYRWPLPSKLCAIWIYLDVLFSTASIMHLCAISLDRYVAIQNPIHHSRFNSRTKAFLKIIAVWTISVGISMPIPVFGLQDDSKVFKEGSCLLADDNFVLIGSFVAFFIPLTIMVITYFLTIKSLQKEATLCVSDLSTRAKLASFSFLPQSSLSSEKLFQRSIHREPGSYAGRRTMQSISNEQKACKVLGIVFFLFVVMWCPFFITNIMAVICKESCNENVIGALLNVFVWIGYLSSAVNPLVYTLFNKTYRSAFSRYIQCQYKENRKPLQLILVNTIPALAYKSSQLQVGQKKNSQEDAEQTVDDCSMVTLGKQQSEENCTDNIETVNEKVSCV
T2 sequence (P14842 whole entry): as above

Row | Structure (SMILES) | Ki (rat 5-HT2A receptors) [nM] | EC50 (5-HT2A [1]) [nM] | functional activity in 5-HT2A-mediated inward current recordings (5-HT2A receptors) | oral activity (dose) [2] [mg] | functional activity at the 5-HT2A receptor (5-HT2A [3]) | Ki (5-HT2A [4]) [nM] | EC50 (5-HT2B) [nM] | Normalized Peak INa Inhibition (human Nav1.1 and Navβ1) | Peak INa Density (human Nav1.1 and Navβ1) [pA/pF] | Peak INa Density @ −20 mV (human Nav1.1 and Navβ1) [pA/pF] | reduction of baseline peak INa (human Nav1.1 and Navβ1) [%]
1 | COc1cc(CCN)c(OC)cc1Br [2C-B] | 0.66 | 2.1 | antagonist | 12 to 24 | partial agonist | 0.88 | 57 |  |  |  | 
2 | NC1=N[C@H](O)[C@H]2[C@H]3O[C@]4(O)O[C@@H]([C@@H](O)[C@@]2(N1)[C@@H]4O)[C@]3(O)CO [TTX, Tetrodotoxin, reference compound] |  |  |  |  |  |  |  | 0.870 ± 0.02 | −56.3 ± 9.4 | −15.84±2.16 | 87±2
